Laboratory results reported in ChEMBL document CHEMBL1201862, “PubChem BioAssay data set” (2004).
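Each compound was tested at five concentrations against cells in 96-well plates for 48 hours. GI50 marks 50% less growth.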 Activity calls are given as the source filed them. Cut-off read from the data, not from the text of the source: active = GI50 up to about 1.1 µM and inactive = higher.

What was measured:
Test in all cases: growth of human tumour cells (NCI), 48 h
[1] = system: M19-MEL
[2] = system: DMS-114
[3] = system: KM-20L2
[4] = system: XF498
[5] = system: DMS-273
[6] = system: NCI/ADR-RES
[7] = system: MCF7
[8] = system: OVCAR-5
[9] = system: DLD-1
[10] = system: HOP-18
[11] = system: SNB-78
[12] = system: Malme-3M
[13] = system: OVCAR-3
[14] = system: CAKI-1
[15] = system: T47D
[16] = system: SR
[17] = system: TK-10
[18] = system: M14
[19] = system: ACHN
[20] = system: Hs-578T

Row | Compound | GI50 [1] | GI50 [2] | GI50 [3] | GI50 [4] | GI50 [5] | GI50 [6] | GI50 [7] | GI50 [8] | GI50 [9] | GI50 [10] | GI50 [11] | GI50 [12] | GI50 [13] | GI50 [14] | GI50 [15] | GI50 [16] | GI50 [17] | GI50 [18] | GI50 [19] | GI50 [20]
1 | Nc1[nH]cnc2ncnc1-2 [ADENINE] | > 141 µM (inactive) | 84.1 µM (inactive) | > 250 µM (inactive) | 9.4 µM (inactive) | 81.1 µM (inactive) | 46.2 µM (inactive) | > 21.3 µM (inactive) | > 250 µM (inactive) | 135 µM (inactive) | 109 µM (inactive) | 114 µM (inactive) | – | – | – | – | – | – | – | – | –
2 | Cc1c2c(cc3c1[nH]c1ccccc13)C=NCC2 | 11.1 µM (inactive) | 6.9 µM (inactive) | 9.51 µM (inactive) | 7.14 µM (inactive) | 12.6 µM (inactive) | 12.2 µM (inactive) | 2.92 µM (inactive) | 22 µM (inactive) | 4.2 µM (inactive) | 9.62 µM (inactive) | 19.7 µM (inactive) | 6.61 µM (inactive) | 1.26 µM (inactive) | 11.3 µM (inactive) | – | – | – | – | – | –
3 | O=C(O[C@@H](/C=C/c1ccccc1)P1(=O)N(Cc2ccccc2)[C@H]2CCCC[C@@H]2N1Cc1ccccc1)c1ccccc1 | – | – | – | – | – | 3.52 µM (inactive) | 2.32 µM (inactive) | 3.86 µM (inactive) | – | – | – | 4.2 µM (inactive) | 3.48 µM (inactive) | 2.66 µM (inactive) | 2.44 µM (inactive) | 2.86 µM (inactive) | 3.52 µM (inactive) | 4.18 µM (inactive) | 2.32 µM (inactive) | 13.6 µM (inactive)
4 | Nc1nc(SCCNC(=O)CCc2ccc(O)c(I)c2)nc2c1ncn2C1OC(CO)C(O)C1O (stereo unspecified) | > 100 µM (inactive) | > 100 µM (inactive) | > 100 µM (inactive) | > 100 µM (inactive) | > 100 µM (inactive) | – | – | > 100 µM (inactive) | > 100 µM (inactive) | – | > 100 µM (inactive) | > 100 µM (inactive) | > 100 µM (inactive) | – | – | > 100 µM (inactive) | > 100 µM (inactive) | > 100 µM (inactive) | > 100 µM (inactive) | –
5 | CCCCOc1ccc(OCCCCCCCCCC[N+](C)(C)C)cc1 | – | 2.05 µM (inactive) | 0.682 µM (active) | 1.71 µM (inactive) | 1.51 µM (inactive) | 58.9 µM (inactive) | 3.44 µM (inactive) | 4.65 µM (inactive) | 6.38 µM (inactive) | 3.42 µM (inactive) | 2.38 µM (inactive) | 4.37 µM (inactive) | 2.1 µM (inactive) | 3.73 µM (inactive) | – | – | – | – | – | –
6 | CSc1nc(NC2OCC(O)C(O)C2O)c(N)c(=O)[nH]1 (stereo unspecified) | > 100 µM (inactive) | > 100 µM (inactive) | > 100 µM (inactive) | – | > 100 µM (inactive) | > 100 µM (inactive) | > 100 µM (inactive) | > 100 µM (inactive) | > 100 µM (inactive) | > 100 µM (inactive) | > 100 µM (inactive) | > 100 µM (inactive) | > 100 µM (inactive) | – | – | – | – | – | – | –
7 | CC(=O)NC1=C[C@@H]([C@H]2COC(C)(C)O2)OC1=O | > 100 µM (inactive) | > 100 µM (inactive) | > 100 µM (inactive) | > 82.8 µM (inactive) | > 100 µM (inactive) | > 100 µM (inactive) | > 100 µM (inactive) | > 100 µM (inactive) | > 100 µM (inactive) | > 100 µM (inactive) | > 100 µM (inactive) | > 100 µM (inactive) | > 100 µM (inactive) | > 100 µM (inactive) | – | – | – | – | – | –
8 | CCOC(=O)C(NC(=O)CC)(Nc1ccccc1OC)C(F)(F)F (stereo unspecified) | – | – | – | – | – | > 100 µM (inactive) | > 100 µM (inactive) | > 100 µM (inactive) | – | – | – | – | > 100 µM (inactive) | 13 µM (inactive) | > 100 µM (inactive) | > 100 µM (inactive) | > 100 µM (inactive) | > 100 µM (inactive) | > 100 µM (inactive) | > 100 µM (inactive)
9 | O=c1c(Cc2c(O)oc3cc(O)ccc3c2=O)c(O)oc2cc(O)ccc12 | – | – | – | – | – | > 100 µM (inactive) | > 100 µM (inactive) | > 100 µM (inactive) | – | – | – | > 100 µM (inactive) | > 100 µM (inactive) | > 100 µM (inactive) | > 100 µM (inactive) | > 100 µM (inactive) | > 100 µM (inactive) | > 100 µM (inactive) | – | 94.4 µM (inactive)
10 | COc1ccc(/C=N/N=C(N)N)c(C(=O)O)c1OC | – | > 100 µM (inactive) | > 100 µM (inactive) | – | > 100 µM (inactive) | – | – | – | – | > 100 µM (inactive) | > 100 µM (inactive) | – | > 100 µM (inactive) | > 100 µM (inactive) | – | – | > 100 µM (inactive) | > 100 µM (inactive) | > 100 µM (inactive) | –
11 | COc1nc(Cl)c(Cl)c(Cl)n1.COc1nc(Cl)nc(Cl)c1Cl | – | – | – | – | – | 7.87 µM (inactive) | 2.62 µM (inactive) | 30.9 µM (inactive) | – | – | – | 10.6 µM (inactive) | 3.95 µM (inactive) | 0.0254 µM (active) | 2.29 µM (inactive) | 0.09 µM (active) | 8.73 µM (inactive) | 8.36 µM (inactive) | 7.59 µM (inactive) | 3.91 µM (inactive)
12 | N/C(=C\c1ccc(/C=C(\NC(=O)c2ccccc2)c2nc3c([nH]2)C(=O)c2ccccc2C3=O)cc1)c1nc2c([nH]1)C(=O)c1ccccc1C2=O | – | 7.55 µM (inactive) | 16.5 µM (inactive) | 11.6 µM (inactive) | 18.5 µM (inactive) | – | – | 18.9 µM (inactive) | 12.7 µM (inactive) | 14.3 µM (inactive) | 20.6 µM (inactive) | – | 13.6 µM (inactive) | 14.3 µM (inactive) | – | – | 23.1 µM (inactive) | 16.2 µM (inactive) | 15.6 µM (inactive) | –
13 | N=C(N)Nc1ncccc1[N+](=O)[O-] | – | 15.8 µM (inactive) | 25.4 µM (inactive) | > 100 µM (inactive) | > 100 µM (inactive) | > 100 µM (inactive) | 25.7 µM (inactive) | > 100 µM (inactive) | > 100 µM (inactive) | > 100 µM (inactive) | > 100 µM (inactive) | 44.6 µM (inactive) | 25.1 µM (inactive) | > 100 µM (inactive) | – | – | – | – | – | –
14 | OCCNCN(CNCCO)c1nc(N(CNCCO)CNCCO)nc(N(CNCCO)CNCCO)n1 | 0.0405 µM (active) | – | 0.103 µM (active) | > 0.4 µM (active) | > 0.4 µM (active) | – | – | 0.146 µM (active) | 0.04 µM (active) | 0.0841 µM (active) | 0.0959 µM (active) | 0.04 µM (active) | 0.0908 µM (active) | – | – | – | 0.133 µM (active) | 0.0577 µM (active) | 0.04 µM (active) | –
15 | CCOC(=O)/C(C#N)=C1/SC(C(=O)N/N=C/c2ccc(OC)cc2)=C(N)N1c1ccccc1 | > 100 µM (inactive) | – | – | – | – | – | – | > 100 µM (inactive) | > 100 µM (inactive) | > 100 µM (inactive) | – | – | > 100 µM (inactive) | – | – | > 100 µM (inactive) | > 100 µM (inactive) | – | 28.9 µM (inactive) | –
